Laboratory results published in paper PMC9036659, “Boron-containing capsaicinoids” (RSC Advances, 2021).
≈ marks a conversion by molar mass, not a printed value.

What was measured:
[1] = test system: vancomycin-resistant Enterococcus; set-up: method as in doi:10.1139/cjc-2018-0193; conditions: data collected in previous study; Inactive = inhibition above 400 μM; cited from earlier work
MRSA = test system: MRSA; set-up: method as in doi:10.1139/cjc-2018-0193; conditions: data collected in previous study; Inactive = inhibition above 400 μM; cited from earlier work
[2] = test system: green monkey kidney cells Vero (ATCC CCL-81); experiment: Cytotoxicity assay (Alamar blue), Vero; type: cell-based
Description: (§1) The cells (human foreskin BJ fibroblast cells (ATCC CRL-2522), green monkey kidney cells Vero (ATCC CCL-81), human breast adenocarcinoma cells (ATCC HTB-26 MDA-MB 231), human breast adenocarcinoma cells (MCF7 ATCC HTB-22), and human colorectal carcinoma cells (HCT116 ATCC CCL-247)) were grown to 80% confluency, the cells were counted, diluted, and plated into treated 96-well cell culture plates. The BJ fibroblast and Vero cells were plated at a cell density of 10 000 cells per well and the HTB26, HCT116 and MCF7 cells were plated at cell density of 5000 cells per well in 90 μL of respective growth medium (without the addition of antibiotics) and incubated for 24 h to allow cells to adhere to the plates before treatment. Pure compounds were tested in triplicate in serial dilutions of seven concentrations ranging from 2 to 128 μg mL^−1 per well (final well volume of 100 μL, 1% DMSO per well). Each of the cell lines were incubated at 37 °C in a humidified atmosphere of 5% CO2; the BJ fibroblast and Vero cells for 24 h and the HTB-26, HCT116 and MCF7 cells for 72 h. Each plate contained four uninoculated positive controls, four untreated negative controls, and one column containing a concentration range for doxorubicin. Alamar blue was added, 24 h after the treatment, and fluorescence was monitored using a Cytation Gen 5 plate reader using 560 nm Ex/590 Em both at time zero and 4 h after Alamar blue addition. The inferred percentage of cell viability relative to vehicle control wells were calculated after subtracting the time zero emission 590 nm measurement from the final reading and the IC50 was determined. […]
(§2) Cytotoxicity Assay Data Alamar blue was added, 24 h after the treatment, and fluorescence was monitored using a Cytation Gen 5 plate reader using 560 nm Ex/590 Em both at time zero and 4 h after Alamar blue addition. The inferred percentage of cell viability relative to vehicle control wells were calculated after subtracting the time zero emission 590 nm measurement from the final reading and the IC50 was determined.

[3] = test system: vancomycin-resistant Enterococcus faecium VRE 379; experiment: Antimicrobial assay, VRE (PrestoBlue fluorescence); type: cell-based
Description: (§3) The microorganisms (methicillin-resistant S. aureus MRSA 310, vancomycin-resistant E. faecium VRE 379, S. warneri (ATCC 17917), P. vulgaris (ATCC 12454), P. aeruginosa (ATCC 14210), and C. albicans (ATCC 14035)) were grown overnight on agar media. The following day the cultures were transferred into 0.9% saline water into a sterile glass tube. Using the McFarland reader, the turbidity was determined and further diluted into their respective media. The pure compounds were tested at seven different concentrations ranging from 2 to 128 μg mL^−1 in triplicate. Samples were plated into 96 well plates (10 μL in 20% DMSO) and then diluted pathogen (90 μL) was pipetted into the pre-prepared sample plates yielding 5 × 10^5 cfu mL^−1 with a final volume of 100 μL. Antibiotics that are active against specific pathogens were used as positive controls. The plates were incubated into a 37 °C incubator for 22 h. Growth of S. warneri. P. vulgaris, P. aeruginosa and C. albicans were measured by reading optical density (OD600), or in the case of slow growing microorganisms (MRSA and VRE), PrestoBlue was used to assess metabolic activity by measuring fluorescence (535–560)/(590–615) (excitation/emission) using a Thermo Scientific Varioskan Flash plate reader at time zero and then again after incubation of the plates for 22 h at 37 °C. After subtracting the time zero OD600 from the final reading, the percentages of microorganism survival relative to vehicle control wells were calculated. […]
(§4) Antimicrobial Assay Data Growth of S. warneri. P. vulgaris, P. aeruginosa and C. albicans were measured by reading optical density (OD600), or in the case of slow growing microorganisms (MRSA and VRE), PrestoBlue was used to assess metabolic activity by measuring fluorescence (535-560)⁄(590-615) (excitation/emission) using a Thermo Scientific Varioskan Flash plate reader at time zero and then again after incubation of the plates for 22 h at 37 °C. After subtracting the time zero OD600 from the final reading, the percentages of microorganism survival relative to vehicle control wells were calculated. […]

[4] = test system: human foreskin BJ fibroblast cells (ATCC CRL-2522); experiment: Cytotoxicity assay (Alamar blue), BJ; type: cell-based
Description: as §1, §2

[5] = test system: methicillin-resistant Staphylococcus aureus MRSA 310; experiment: Antimicrobial assay, MRSA (PrestoBlue fluorescence); type: cell-based; conditions: for IC50 / MIC90: Staphylococcus aureus, MRSA, 22 h, 37 °C, Inactive = inhibition above 300 μM; for IC50: average ± SD, read-out: MRSA IC50; for MIC90: concentration for 90% growth inhibition, read-out: MRSA MIC90
Description: as §3, §4

[6] = test system: human breast adenocarcinoma cells (ATCC HTB-26 MDA-MB 231); experiment: Cytotoxicity assay (Alamar blue), HTB-26; type: cell-based; conditions: for IC50: Homo sapiens, HTB26, 72 h incubation, average ± SD, Inactive = inhibition above 300 μM, read-out: IC50 HTB (cancer cell line)
Description: as §1, §2

[7] = test system: human colorectal carcinoma cells (HCT116 ATCC CCL-247); experiment: Cytotoxicity assay (Alamar blue), HCT116; type: cell-based; conditions: for IC50: Homo sapiens, HCT-116, 72 h incubation, average ± SD, Inactive = inhibition above 300 μM, read-out: IC50 HCT (cancer cell line)
Description: as §1, §2

[8] = test system: human breast adenocarcinoma cells (MCF7 ATCC HTB-22); experiment: Cytotoxicity assay (Alamar blue), MCF7; type: cell-based; conditions: for IC50: Homo sapiens, MCF7, 72 h incubation, average ± SD, Inactive = inhibition above 300 μM, read-out: IC50 MCF7 (cancer cell line)
Description: as §1, §2

[9] = test system: Staphylococcus warneri (ATCC 17917); experiment: Antimicrobial assay, S. warneri (OD600); type: cell-based
Description: as §3, §4

[10] = 24 h incubation, average ± SD, Inactive = inhibition above 300 μM
[11] = 22 h, 37 °C, Inactive = inhibition above 300 μM
[12] = 22 h, 37 °C, average ± SD, Inactive = inhibition above 300 μM

| SMILES | VRE IC50 [1] | VRE MIC90 [1] | MRSA MIC90 (MRSA) | antimicrobial activity against MRSA (in words) [5] | IC50 [5] [µM] | MIC90 [5] [µM] | cytotoxic activity against HTB-26 MDA-MB 231 (in words) [6] | IC50 [6] [µM] | cytotoxic activity against HCT116 (in words) [7] | IC50 [7] [µM] | cytotoxic activity against MCF7 (in words) [8] | IC50 [8] [µM] | also measured |
| --- | --- | --- | --- | --- | --- | --- | --- | --- | --- | --- | --- | --- | --- |
| COc1cc(CNC(=O)CCCC/C=C/C(C)C)ccc1O [Capsaicin] | Inactive | Inactive | Inactive |  |  |  |  |  |  |  |  |  | MRSA IC50 (MRSA): Inactive |
| COc1cc(CNC(=O)CCCCB2OC(C)(C)C(C)(C)O2)ccc1OCc1ccccc1 [Compound 8a] | Inactive | Inactive | Inactive |  |  |  |  |  |  |  |  |  | IC50 (MRSA): 107 µM |
| CCCCCC(=O)N(Cc1ccc(OC)c(OC)c1)c1cccc(B2OC(C)(C)C(C)(C)O2)c1 [Compound 25, N-(3,4-dimethoxyphenylmethyl)-N-[3-(4,4,5,5-tetramethyl-1,3,2-dioxaborolan-2-yl)phenyl]-hexanamide] |  |  |  | moderate activity | 70.6 ± 6.6 | 137 (≈ 64 µg/mL) | selective but low to moderate activity | 76.1 ± 3.4 | selective but low to moderate activity | 137 ± 12 | selective but low to moderate activity | 118 ± 19.5 | IC50 Vero (normal cell line) [2, 10]: Inactive; antimicrobial activity against VRE (in words) [3]: moderate activity; MIC90 [3, 11]: 274 µM (≈ 128 µg/mL); IC50 [3, 12]: 91.6 ± 6.8 µM; IC50 BJ (normal cell line) [4, 10]: Inactive; antimicrobial activity against S. warneri (in words) [9]: moderate activity; MIC90 ([9]; Staphylococcus warneri, ATCC17917, 22 h, 37 °C, Inactive = inhibition above 300 μM, read-out: S. warneri MIC90): 137 µM (≈ 64 µg/mL); IC50 ([9]; Staphylococcus warneri, ATCC17917, 22 h, 37 °C, average ± SD, Inactive = inhibition above 300 μM, read-out: S. warneri IC50): 78.3 ± 39.8 µM |
| CCCCCCCCCC(=O)N(Cc1ccc(OC)c(OC)c1)c1cccc(B2OC(C)(C)C(C)(C)O2)c1 [Compound 26, N-(3,4-dimethoxyphenylmethyl)-N-[3-(4,4,5,5-tetramethyl-1,3,2-dioxaborolan-2-yl)phenyl]-decanamide] |  |  |  | selectively active | 13.2 | 15.3 (≈ 8.01 µg/mL) | unselective cytotoxic effects | 31.5 ± 2.7 | unselective cytotoxic effects | 44.3 ± 10.5 | unselective cytotoxic effects | 35.7 ± 16.2 | cytotoxic activity against Vero (in words) [2]: unselective cytotoxic effects; IC50 ([2]; Chlorocebus sabaeus, Vero, 24 h incubation, average ± SD, Inactive = inhibition above 300 μM, read-out: IC50 Vero (normal cell line)): 47.2 ± 6.7 µM; VRE MIC90 [3, 11]: Inactive; VRE IC50 [3, 12]: Inactive; cytotoxic activity against BJ (in words) [4]: unselective cytotoxic effects; IC50 ([4]; Homo sapiens, Fibroblast, 24 h incubation, average ± SD, Inactive = inhibition above 300 μM, read-out: IC50 BJ (normal cell line)): 38.6 ± 1 µM; S. warneri MIC90 [9, 11]: Inactive; S. warneri IC50 [9, 12]: Inactive |
